Data published in EP4660182A1, “NAV1.7- AND/OR NAV1.8-INHIBITING ARYL PYRIDINE COMPOUNDS, PROCESSES FOR THE PREPARATION THEREOF, COMPOSITIONS, USES, METHODS FOR TREATMENT USING SAME, AND KITS” (Eurofarma Laboratórios S.A., priority 2023, dated 2024).

Experiments:
[1] = target: T1, human sodium channels Nav 1.8 (Homo sapiens, UniProt Q9Y5Y9); assay: Automated whole-cell voltage-clamp (ScreenPatch 384P) sodium current block, Nav 1.8; assay type: cell-based; settings: CHO cells stably expressing human Nav 1.8; inactivation step -40 mV 8 s, test step 10 mV (TP1A); eight concentrations; exposure at least five minutes; room temperature; read-out: Nav1.8 IC50
T1 construct: expressed in transfected cells
In short: (§1)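 Stable CHO lines, whole-cell automated patch clamp at room temperature, ≥5 min exposure, eight concentrations. From -100 mV hold, 8 s at -40 mV, 20 ms at -100 mV, then test pulse to 10 mV (Nav 1.8) or 0 mV (Nav 1.7) at 0.05 Hz; peak-current % block fitted for IC50, averaged over repeats.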

[2] = target: T2, human sodium channels Nav 1.7 (Homo sapiens, UniProt Q15858); assay: Automated whole-cell voltage-clamp (ScreenPatch 384P) sodium current block, Nav 1.7; assay type: cell-based; settings: CHO cells stably expressing human Nav 1.7; inactivation step -40 mV 8 s, test step 0 mV (TP1A); eight concentrations; exposure at least five minutes; room temperature; read-out: Nav1.7 IC50
T2 construct: expressed in transfected cells
In short: as §1

T2 sequence (Q15858 whole entry): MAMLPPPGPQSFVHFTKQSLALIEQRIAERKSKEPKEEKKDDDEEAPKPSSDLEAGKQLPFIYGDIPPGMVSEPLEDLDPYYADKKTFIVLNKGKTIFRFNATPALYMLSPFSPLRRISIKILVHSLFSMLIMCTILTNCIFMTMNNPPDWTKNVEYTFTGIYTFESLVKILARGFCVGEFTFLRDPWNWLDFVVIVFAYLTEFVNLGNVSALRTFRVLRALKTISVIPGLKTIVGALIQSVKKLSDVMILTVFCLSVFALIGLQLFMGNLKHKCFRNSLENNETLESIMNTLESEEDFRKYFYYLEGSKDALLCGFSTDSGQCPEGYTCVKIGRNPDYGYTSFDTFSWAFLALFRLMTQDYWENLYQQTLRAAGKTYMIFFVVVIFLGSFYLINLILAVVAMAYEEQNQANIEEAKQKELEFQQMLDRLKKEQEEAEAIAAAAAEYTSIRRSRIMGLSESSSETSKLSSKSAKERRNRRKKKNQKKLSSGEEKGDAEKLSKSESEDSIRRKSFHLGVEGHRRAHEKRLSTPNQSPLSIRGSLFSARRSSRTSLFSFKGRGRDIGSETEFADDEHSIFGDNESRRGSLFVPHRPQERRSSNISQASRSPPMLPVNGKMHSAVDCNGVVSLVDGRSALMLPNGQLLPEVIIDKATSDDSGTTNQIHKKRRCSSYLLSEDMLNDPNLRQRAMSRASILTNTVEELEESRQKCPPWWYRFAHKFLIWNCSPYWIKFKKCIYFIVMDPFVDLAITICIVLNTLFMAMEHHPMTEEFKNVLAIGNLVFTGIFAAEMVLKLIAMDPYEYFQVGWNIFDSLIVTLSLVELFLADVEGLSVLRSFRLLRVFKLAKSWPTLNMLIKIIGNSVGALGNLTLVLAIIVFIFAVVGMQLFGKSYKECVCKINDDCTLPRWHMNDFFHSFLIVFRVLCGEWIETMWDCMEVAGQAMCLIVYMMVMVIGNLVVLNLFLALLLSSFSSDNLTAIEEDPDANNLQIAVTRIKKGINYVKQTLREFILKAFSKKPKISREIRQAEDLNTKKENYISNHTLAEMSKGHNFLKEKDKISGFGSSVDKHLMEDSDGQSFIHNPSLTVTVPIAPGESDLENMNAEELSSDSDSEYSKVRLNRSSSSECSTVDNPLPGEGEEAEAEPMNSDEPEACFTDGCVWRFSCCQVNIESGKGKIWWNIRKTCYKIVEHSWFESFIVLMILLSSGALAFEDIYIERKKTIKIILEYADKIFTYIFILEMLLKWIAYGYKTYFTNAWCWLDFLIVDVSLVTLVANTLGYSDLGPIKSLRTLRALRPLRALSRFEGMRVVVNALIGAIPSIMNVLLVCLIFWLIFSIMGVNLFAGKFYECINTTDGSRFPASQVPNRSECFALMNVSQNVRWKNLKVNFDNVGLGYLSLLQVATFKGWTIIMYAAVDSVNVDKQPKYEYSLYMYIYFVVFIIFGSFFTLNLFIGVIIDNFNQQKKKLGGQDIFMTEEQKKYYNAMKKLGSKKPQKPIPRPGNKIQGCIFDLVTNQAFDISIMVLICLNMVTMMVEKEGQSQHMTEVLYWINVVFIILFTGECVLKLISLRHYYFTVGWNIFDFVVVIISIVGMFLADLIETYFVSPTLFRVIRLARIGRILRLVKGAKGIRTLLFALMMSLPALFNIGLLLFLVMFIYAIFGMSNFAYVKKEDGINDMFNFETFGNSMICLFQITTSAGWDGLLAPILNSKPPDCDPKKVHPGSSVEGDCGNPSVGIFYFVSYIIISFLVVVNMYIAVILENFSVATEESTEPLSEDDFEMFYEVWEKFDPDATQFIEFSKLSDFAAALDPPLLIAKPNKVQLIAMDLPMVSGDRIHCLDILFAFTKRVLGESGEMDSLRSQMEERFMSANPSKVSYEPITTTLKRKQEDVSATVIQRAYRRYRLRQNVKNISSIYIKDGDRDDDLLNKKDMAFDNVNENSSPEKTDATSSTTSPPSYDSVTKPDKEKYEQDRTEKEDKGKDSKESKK
T1 sequence (Q9Y5Y9 whole entry): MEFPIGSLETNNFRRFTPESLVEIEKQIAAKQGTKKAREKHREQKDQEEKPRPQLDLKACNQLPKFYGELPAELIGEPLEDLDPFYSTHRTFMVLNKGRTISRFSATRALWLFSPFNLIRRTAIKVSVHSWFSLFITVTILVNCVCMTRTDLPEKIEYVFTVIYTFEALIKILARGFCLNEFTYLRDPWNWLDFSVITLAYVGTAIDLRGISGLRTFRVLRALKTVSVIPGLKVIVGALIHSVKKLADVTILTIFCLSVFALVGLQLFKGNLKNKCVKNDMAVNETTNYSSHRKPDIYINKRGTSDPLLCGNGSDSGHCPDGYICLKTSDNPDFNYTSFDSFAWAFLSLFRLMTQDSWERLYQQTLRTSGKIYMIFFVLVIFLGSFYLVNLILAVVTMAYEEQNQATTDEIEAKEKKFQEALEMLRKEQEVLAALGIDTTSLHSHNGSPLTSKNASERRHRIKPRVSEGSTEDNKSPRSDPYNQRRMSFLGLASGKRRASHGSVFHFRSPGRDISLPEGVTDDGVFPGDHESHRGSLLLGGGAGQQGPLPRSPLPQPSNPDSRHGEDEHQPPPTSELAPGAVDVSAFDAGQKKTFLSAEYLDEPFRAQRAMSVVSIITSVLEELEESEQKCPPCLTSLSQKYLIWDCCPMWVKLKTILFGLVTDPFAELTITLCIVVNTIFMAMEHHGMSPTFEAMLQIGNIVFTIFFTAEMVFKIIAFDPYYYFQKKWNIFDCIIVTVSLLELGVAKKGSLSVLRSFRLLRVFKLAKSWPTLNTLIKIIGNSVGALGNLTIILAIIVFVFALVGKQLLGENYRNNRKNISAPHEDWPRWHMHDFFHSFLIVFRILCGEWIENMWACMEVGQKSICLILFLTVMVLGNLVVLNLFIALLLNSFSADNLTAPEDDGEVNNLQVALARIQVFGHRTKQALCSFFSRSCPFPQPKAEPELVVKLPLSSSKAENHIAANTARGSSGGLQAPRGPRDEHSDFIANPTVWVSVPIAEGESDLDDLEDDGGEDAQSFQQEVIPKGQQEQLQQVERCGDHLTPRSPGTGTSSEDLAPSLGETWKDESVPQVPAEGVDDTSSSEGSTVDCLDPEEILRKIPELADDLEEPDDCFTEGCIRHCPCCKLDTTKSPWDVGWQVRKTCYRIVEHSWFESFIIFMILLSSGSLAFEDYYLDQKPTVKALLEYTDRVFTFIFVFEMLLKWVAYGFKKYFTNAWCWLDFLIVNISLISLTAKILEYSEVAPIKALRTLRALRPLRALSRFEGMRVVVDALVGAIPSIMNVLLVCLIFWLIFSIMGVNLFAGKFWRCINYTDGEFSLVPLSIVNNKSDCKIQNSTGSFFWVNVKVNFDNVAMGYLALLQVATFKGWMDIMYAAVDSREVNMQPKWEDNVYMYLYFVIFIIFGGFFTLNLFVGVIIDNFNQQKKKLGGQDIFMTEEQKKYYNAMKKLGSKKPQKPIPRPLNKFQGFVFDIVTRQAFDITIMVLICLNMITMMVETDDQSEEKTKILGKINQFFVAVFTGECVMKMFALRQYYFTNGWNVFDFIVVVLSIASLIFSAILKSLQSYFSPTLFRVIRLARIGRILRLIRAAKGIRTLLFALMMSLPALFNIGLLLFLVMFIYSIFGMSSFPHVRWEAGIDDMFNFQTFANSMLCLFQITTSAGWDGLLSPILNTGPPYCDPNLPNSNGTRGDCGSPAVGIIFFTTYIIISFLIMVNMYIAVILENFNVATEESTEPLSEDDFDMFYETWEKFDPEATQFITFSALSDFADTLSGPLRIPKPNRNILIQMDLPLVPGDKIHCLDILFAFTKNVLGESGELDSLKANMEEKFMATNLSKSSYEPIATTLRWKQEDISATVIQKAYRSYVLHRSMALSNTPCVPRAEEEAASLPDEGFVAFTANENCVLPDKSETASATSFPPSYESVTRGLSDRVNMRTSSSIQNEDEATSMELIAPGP

Row | Structure (SMILES) | IC50 [1] [nM] | IC50 [2] [nM]
1 | COc1ccc(F)c(/C=N/NC(=O)c2cncc(-c3ccc(C#N)nc3)n2)c1 [Compound 130, (E)-6-(6-cyanopyridine-3-yl)-N'-(2-fluoro-5-methoxybenzylidene)pyrazine-2-carbohydrazide] | > 1000 | > 1000
2 | COc1ccc(F)c(/C=N/NC(=O)c2cncc(-c3ccc([S+](C)[O-])nc3)n2)c1 (stereo not drawn) [Compound 131, (E)-N'-(2-fluoro-5-methoxybenzylidene)-6-(6-(methylsulfinyl)pyridine-3-yl)pyrazine-2-carbohydrazide] | 500 to 1000 | > 1000
3 | CC[S+]([O-])c1ccc(-c2cncc(C(=O)N/N=C/c3cc(OC)ccc3F)n2)cn1 (stereo not drawn) [Compound 132, (E)-6-(6-(ethylsulfinyl)pyridine-3-yl)-N'-(2-fluoro-5-methoxybenzylidene)pyrazine-2-carbohydrazide] | > 1000 | > 1000
4 | COc1ccc(F)c(/C=N/NC(=O)c2cncc(-c3ccc(S(N)(=O)=O)nc3)n2)c1 [Compound 133, (E)-5-(6-(2-(2-fluoro-5-methoxybenzylidene)hydrazine-1-carbonyl)pyrazine-2-yl)pyridine-2-sulfonamide] | > 1000 | > 1000
5 | CNS(=O)(=O)c1ccc(-c2cncc(C(=O)N/N=C/c3cc(OC)ccc3F)n2)cn1 [Compound 134, (E)-5-(6-(2-(2-fluoro-5-methoxybenzylidene)hydrazine-1-carbonyl)pyrazine-2-yl)-N-methylpyridine-2-sulfonamide] | > 1000 | > 1000
6 | COc1ccc(F)c(/C=N/NC(=O)c2cncc(-c3ccc(OCCN)nc3)n2)c1 [Compound 135, (E)-6-(6-(2-aminoethoxy)pyridine-3-yl)-N'-(2-fluoro-5-methoxybenzylidene) pyrazine-2-carbohydrazide] | > 1000 | > 1000
7 | COc1ccc(F)c(/C=N/NC(=O)c2cncc(-c3ccc(OCC(C)N)nc3)n2)c1 (stereo not drawn) [Compound 136, (E)-6-(6-(2-aminopropoxy)pyridine-3-yl)-N'-(2-fluoro-5-methoxybenzylidene) pyrazine-2-carbohydrazide] | > 1000 | > 1000
8 | COc1ccc(F)c(/C=N/NC(=O)c2cncc(-c3ccc(OCCO)nc3)n2)c1 [Compound 137, (E)-N'-(2-fluoro-5-methoxybenzylidene)-6-(6-(2-hydroxyethoxy)pyridine-3-yl)pyrazine-2-carbohydrazide] | > 1000 | > 1000
9 | COc1ccc(F)c(/C=N/NC(=O)c2cncc(-c3ccc(OCC(C)O)nc3)n2)c1 (stereo not drawn) [Compound 138, (E)-N'-(2-fluoro-5-methoxybenzylidene)-6-(6-(2-hydroxypropoxy)pyridine-3-yl) pyrazine-2-carbohydrazide] | > 1000 | > 1000
10 | COc1ccc(F)c(/C=N/NC(=O)c2cncc(-c3ccc(OC4CNC4)nc3)n2)c1 [Compound 139, (E)-6-(6-(azetidin-3-yloxy)pyridine-3-yl)-N'-(2-fluoro-5-methoxybenzylidene) pyrazine-2-carbohydrazide] | > 1000 | > 1000
11 | COc1ccc(F)c(/C=N/NC(=O)c2cncc(-c3ccc(OCC4CNC4)nc3)n2)c1 [Compound 140, (E)-6-(6-(azetidin-3-ylmethoxy)pyridine-3-yl)-N'-(2-fluoro-5-methoxybenzylidene) pyrazine-2-carbohydrazide] | > 1000 | > 1000
12 | COc1ccc(F)c(/C=N/NC(=O)c2cncc(-c3ccc(OCCC4CNC4)nc3)n2)c1 [Compound 141, (E)-6-(6-(2-(azetidin-3-yl)ethoxy)pyridine-3-yl)-N'-(2-fluoro-5-methoxybenzylidene)pyrazine-2-carbohydrazide] | > 1000 | > 1000
13 | COc1cnc(F)c(/C=N/NC(=O)c2cncc(-c3ccc(OC4CNC4)nc3)n2)c1 [Compound 142, (E)-6-(6-(azetidin-3-yloxy)pyridine-3-yl)-N'-((2-fluoro-5-methoxypyridine-3-yl)methylene)pyrazine-2-carbohydrazide] | > 1000 | > 1000
14 | COc1cnc(F)c(/C=N/NC(=O)c2cncc(-c3ccc(OCC4CNC4)nc3)n2)c1 [Compound 143, (E)-6-(6-(azetidin-3-ylmethoxy)pyridine-3-yl)-N'-((2-fluoro-5-methoxypyridine-3-yl)methylene)pyrazine-2-carbohydrazide] | > 1000 | > 1000
15 | COc1cnc(F)c(/C=N/NC(=O)c2cncc(-c3ccc(OCCC4CNC4)nc3)n2)c1 [Compound 144, (E)-6-(6-(2-(azetidine-3-yl)ethoxy)pyridine-3-yl)-N'-((2-fluoro-5-methoxypyridine-3-yl)methylene)pyrazine-2-carbohydrazide] | > 1000 | > 1000
16 | COc1ccc(F)c(/C=N/NC(=O)c2cncc(-c3ccc(OCC4CN(C)C4)nc3)n2)c1 [Compound 146, (E)-N'-(2-fluoro-5-methoxybenzylidene)-6-(6-((1-methylazetidine-3-yl)methoxy)pyridine-3-yl)pyrazine-2-carbohydrazide] | > 1000 | > 1000
17 | COc1ccc(F)c(/C=N/NC(=O)c2cncc(-c3ccc(OCCC4CN(C)C4)nc3)n2)c1 [Compound 147, (E)-N'-(2-fluoro-5-methoxybenzylidene)-6-(6-(2-(1-methylazetidine-3-yl)ethoxy)pyridine-3-yl)pyrazine-2-carbohydrazide] | > 1000 | > 1000
18 | COc1ccc(F)c(/C=N/NC(=O)c2cncc(-c3cnc4nc[nH]c4c3)n2)c1 [Compound 166, (E)-N'-(2-fluoro-5-methoxybenzylidene)-6-(1H-imidazo[4,5-b]pyridine-6-yl) pyrazine-2-carbohydrazide] | > 1000 | > 1000
19 | [2H]C([2H])([2H])C([2H])([2H])Oc1ccc(-c2cncc(C(=O)N/N=C/c3cc(OC)cnc3F)n2)cn1 [Compound 170, (E)-6-(6-(ethoxy-d5)pyridine-3-yl)-N'-((2-fluoro-5-methoxypyridine-3-yl)methylene) pyrazine-2-carbohydrazide] | < 500 | > 1000

More lines, now with the values ahead:

Row | IC50 [1] [nM] | IC50 [2] [nM] | Structure (SMILES)
20 | < 500 | > 1000 | CCOc1cc(C)c(-c2cncc(C(=O)N/N=C/c3cc(OC)cnc3F)n2)cn1 [Compound 151, (E)-6-(6-ethoxy-4-methylpyridine-3-yl)-N'-((2-fluoro-5-methoxypyridine-3-yl)methylene)pyrazine-2-carbohydrazide]
21 | < 500 | > 1000 | CCOc1ccc(-c2cncc(C(=O)N/N=C/c3cc(OC)cnc3F)n2)c(C)n1 [Compound 152, (E)-6-(6-ethoxy-2-methylpyridine-3-yl)-N'-((2-fluoro-5-methoxypyridine-3-yl)methylene)pyrazine-2-carbohydrazide]
22 | > 1000 | > 1000 | CCOc1cc(OC)c(-c2cncc(C(=O)N/N=C/c3cc(OC)cnc3F)n2)cn1 [Compound 153, (E)-6-(6-ethoxy-4-methoxypyridine-3-yl)-N'-((2-fluoro-5-methoxypyridine-3-yl)methylene)pyrazine-2-carbohydrazide]
23 | < 500 | < 500 | CCOc1ccc(-c2cncc(C(=O)N/N=C/c3cc(OC)cnc3F)n2)c(OC)n1 [Compound 154, (E)-6-(6-ethoxy-2-methoxypyridine-3-yl)-N'-((2-fluoro-5-methoxypyridine-3-yl)methylene)pyrazine-2-carbohydrazide]
24 | 500 to 1000 | > 1000 | CCOc1ncc(-c2cncc(C(=O)N/N=C/c3cc(OC)cnc3F)n2)cc1O [Compound 157, (E)-6-(6-ethoxy-5-hydroxypyridine-3-yl)-N'-((2-fluoro-5-methoxypyridine-3-yl)methylene) pyrazine-2-carbohydrazide]
25 | < 500 | > 1000 | COc1cnc(F)c(/C=N/NC(=O)c2cncc(-c3ccc(OC(F)F)nc3C)n2)c1 [Compound 159, (E)-6-(6-(difluoromethoxy)-2-methylpyridine-3-yl)-N'-((2-fluoro-5-methoxypyridine-3-yl)methylene)pyrazine-2-carbohydrazide]
26 | < 500 | < 500 | COc1cnc(F)c(/C=N/NC(=O)c2cncc(-c3cnc(OC(F)F)cc3C)n2)c1 [Compound 160, (E)-6-(6-(difluoromethoxy)-4-methylpyridine-3-yl)-N'-((2-fluoro-5-methoxypyridine-3-yl)methylene)pyrazine-2-carbohydrazide]
27 | > 1000 | > 1000 | COc1cnc(F)c(/C=N/NC(=O)c2cncc(-c3ccc(O)nc3)n2)c1 [Compound 167, (E)-N'-((2-fluoro-5-methoxypyridine-3-yl)methylene)-6-(6-hydroxypyridine-3-yl) pyrazine-2-carbohydrazide]
28 | < 500 | > 1000 | [2H]C([2H])([2H])COc1ccc(-c2cncc(C(=O)N/N=C/c3cc(OC)cnc3F)n2)cn1 [Compound 168, (E)-6-(6-(ethoxy-2,2,2-d3)pyridine-3-yl)-N'-((2-fluoro-5-methoxypyridine-3-yl)methylene)pyrazine-2-carbohydrazide]
29 | < 500 | > 1000 | [2H]C([2H])(C)Oc1ccc(-c2cncc(C(=O)N/N=C/c3cc(OC)cnc3F)n2)cn1 [Compound 169, (E)-6-(6-(ethoxy-1,1-d2)pyridine-3-yl)-N'-((2-fluoro-5-methoxypyridine-3-yl)methylene)pyrazine-2-carbohydrazide]
30 | < 500 | > 1000 | [2H]C([2H])([2H])Oc1cnc(F)c(/C=N/NC(=O)c2cncc(-c3ccc(OCC)nc3)n2)c1 [Compound 171, (E)-6-(6-ethoxypyridine-3-yl)-N'-((2-fluoro-5-(methoxy-d3)pyridine-3-yl)methylene) pyrazine-2-carbohydrazide]
